Source: article PMC10305119, “Analogs of 6-Bromohypaphorine with Increased Agonist Potency for α7 Nicotinic Receptor as Anti-Inflammatory Analgesic Agents” (Marine Drugs, 2023)
“Also recorded” adds a separate entry of the source.

What was measured:
[1] = test system: MIA-induced arthritis; assay: Monoiodoacetate-induced arthritis model, functional tests; format: in vivo, Wistar female rats
Method: By the 8th day of the experiment, the maximum inflammation of the knee joint was noted. […] On the 8th and 16th days, the effect of the compound was assessed using a set of functional tests: weight distribution between the healthy and inflamed limbs immediately after the first 6ND injection (Figure 8a) and after eight days of 6ND administration (Figure 8b), muscle strength grasping the hind limbs after the first 6ND injection (Figure 8c) and after eight days of 6ND administration (Figure 8d), mechanical allodynia after the start of 6ND administration and after eight days of 6ND administration (Figure 8e,f, respectively), thermal hypersensitivity 2 h after administration of 6ND ([…]), and measuring the diameter of the knee joint (Figure 8h).
(§1) Four groups of animals were formed: control and three groups with modelling of inflammation by introducing monoiodoacetate (MIA). Three groups of animals were injected with 3 mg MIA in 50 μL of 0.9% sodium chloride through the patellar ligament into the intra-articular space of the right knee using a 29-G needle. Control rats received an equivalent volume of 0.9% sodium chloride.
Assessments of inflammation in vivo and functional tests were conducted on days 8 and 16 after arthritis model induction. Thermal and mechanical hypersensitivity and pain-induced articular disability were tested in this model. Body weight gain and paw oedema were also monitored during the experiment.
The inflamed paw withdrawal or licking latencies to thermal stimulation were measured on a hot plate device (Hot Plate Analgesia Meter, Columbus Instruments) with a set temperature of 53 ± 0.1 °C and a cut-off time of 60 s.
Mechanical hypersensitivity was measured by the electronic von Frey instrument (model BIO-EVF4; Bioseb, Vitrolles, France) used to vertically stimulate the center of the rat hind paw with increasing intensity. Measurements were repeated 3 times and the final value was obtained by averaging the 3 measurements.
Behavioral assessment of movement-caused pain was carried out in a hind limb grip strength test using a Grip Strength Meter (Columbus Instruments, Columbus, OH, USA) consisting of a wire mesh frame connected to the gauge. Rats were restrained and allowed to grasp the wire mesh frame with their hind paws and then were pulled backwards until the grip released. Three measurements were conducted with an interval of 30 s for the averaged grip strength calculation.

[2] = test system: MIA-induced arthritis; assay: Monoiodoacetate-induced arthritis model, histological study of the knee joint; format: in vivo, female rats; conditions: 15th day, scale 0-5, n = 4
Description: After the experiment termination and euthanasia of the experimental animals, biomaterials were taken for histological examination. Soft tissues around the right knee joint were excised as much as possible. Femur, tibia, and fibula were cut across in the middle of the diaphysis closer to the corresponding articular surfaces. The joint was fixed in a 10% solution of neutral formalin for seven days, washed in running water and then decalcified in Trilon B for 7–14 days. After satisfactory decalcification of the bone and cartilage tissue, the joint was cut in the sagittal plane. The diaphysis of the tubular bones was shortened to the border of 2–3 mm from the metaepiphyseal cartilage. In this form, the biomaterial was repeatedly washed in running water, dehydrated in alcohols of ascending concentration, and embedded in paraffin. Paraffin sections 5–7 μm thick were stained with hematoxylin and eosin and examined using conventional light microscopy. During histological analysis, the following morphological signs were assessed: inflammatory infiltration of the synovial membrane (synovitis), synovial hyperplasia, destructive changes in the articular cartilage, and destructive changes in bone tissue (if any). The following scale was used to assess the severity of a particular morphological trait: 0 points—within normal limits, 1—minimal severity, 2—weak, 3—medium (moderate), 4—strong, 5—very strong.
as §1

[3] = test system: ERK 1/2 phosphorylation; assay: ERK1/2 phosphorylation in LPS-stimulated macrophages (flow cytometry); format: cell-based, human; conditions: compound 1 h, then LPS 3 h; control MFI 194; listed as 6ID
Method: To gain an insight into the signaling induced by the tested compounds, ERK1/2 and STAT3 phosphorylation was checked. Macrophages were treated with tested compounds for 1 h, after which they were stimulated with LPS for 3 h.
Peripheral blood mononuclear cells (PBMCs) were separated by Ficoll-Paque PLUS density gradient centrifugation. PBMCs were placed in a sterile Petri dish and incubated at 37 °C for 2 h. Unattached cells were then removed by washing with PBS and substituted with fresh complete RPMI 1640 medium. To generate monocyte-derived macrophages (MDMs), 50 ng/mL GM-CSF was added to the isolated monocytes and cultured for 6 days to differentiate them into non-polarized MDMs.
Figure 5 Effects of the analyzed compounds on signaling pathways in LPS-stimulated macrophages. Cells were treated with PNU 282987, hypaphorine, or 6-iodohypaphorine methyl ester (6ID) for 1 h and then stimulated with LPS for 3 h. Phosphorylated ERK1/2 and STAT3 were quantified by flow cytometry with specific antibodies. […] (c): Representative histogram showing the increase in ERK 1/2 phosphorylation in comparison to control. The numbers in the histograms show the MFI ± SD (n = 3). MFI—geometrical mean fluorescence intensity. One-way ANOVA tests with Tukey post hoc test: * p ˂ 0.05, ** p ˂ 0.01, *** p < 0.001 in comparison with untreated cells. […]

COC(=O)C(Cc1c[nH]c2cc([N+](=O)[O-])ccc12)[N+](C)(C)C (stereo not shown) [Compound 5, methyl ester of 6-nitrohypaphorine]
anti-oedemic and analgesic effects in arthritis rat model ([1]; i.p. doses 0.05–0.26 mg/kg): demonstrated anti-oedemic and analgesic effects
grip strength of affected limb ([1]; rats, 0.05 and 0.26 mg/kg, after eight days of administration, listed as 6ND): significantly improved grip strength in MIA-induced arthritis in rats at a dose of 0.05 but not 0.26 mg/kg; also recorded: significantly improved grip strength of affected limb after eight days
body weight distribution between healthy and affected limbs ([1]; rats, 0.05 and 0.26 mg/kg, days 8 and 16, listed as 6ND): No significant influence of 6ND on recovery was detected; also recorded: did not influence body weight distribution
thermal hyperalgesia in hot plate test ([1]; rats, 2 h after administration, listed as 6ND): No significant effects of 6ND in hot plate test; also recorded: did not influence thermal hyperalgesia
mechanical allodynia ([1]; rats, 16 days after MIA, eight days of administration, listed as 6ND): dose-dependent improvement in allodynia test 16 days after MIA injection; also recorded: analgesic (anti-allodynic) effect
oedema of the MIA-injected knee joint (diameter) ([1]; rats, listed as 6ND): Significant effect in dynamics of oedema was detected in rats treated with 0.05 mg/kg 6ND; also recorded: anti-oedemic effect on the MIA-injected joint
Destructive Changes in the Distal Epiphyseal Cartilage of the Femur, Max score ([2]; 0.05 mg/kg intramuscular): 3.0
Destructive Changes in the Distal Epiphyseal Cartilage of the Femur, Me (average) score ([2]; 0.05 mg/kg intramuscular): 3.0
Destructive Changes in the Distal Epiphyseal Cartilage of the Femur, Min score ([2]; 0.05 mg/kg intramuscular): 3.0
Destructive Changes in the Proximal Epiphyseal Cartilage of the Tibia, Max score ([2]; 0.05 mg/kg intramuscular): 4.0
Destructive Changes in the Proximal Epiphyseal Cartilage of the Tibia, Me (average) score ([2]; 0.05 mg/kg intramuscular): 3.5
Destructive Changes in the Proximal Epiphyseal Cartilage of the Tibia, Min score ([2]; 0.05 mg/kg intramuscular): 3.0
Inflammatory Infiltration of the Synovium, Max score ([2]; 0.05 mg/kg intramuscular): 4.0
Inflammatory Infiltration of the Synovium, Me (average) score ([2]; 0.05 mg/kg intramuscular): 3.75
Inflammatory Infiltration of the Synovium, Min score ([2]; 0.05 mg/kg intramuscular): 3.0
Synovial Hyperplasia, Max score ([2]; 0.05 mg/kg intramuscular): 3.0
Synovial Hyperplasia, Min score ([2]; 0.05 mg/kg intramuscular): 2.0
Synovial Hyperplasia, Me (average) score ([2]; 0.05 mg/kg intramuscular, listed as 6ND): 2.25
Destructive Changes in the Distal Epiphyseal Cartilage of the Femur, Max score ([2]; 0.26 mg/kg intramuscular): 3.0
Destructive Changes in the Distal Epiphyseal Cartilage of the Femur, Me (average) score ([2]; 0.26 mg/kg intramuscular): 3.0
Destructive Changes in the Distal Epiphyseal Cartilage of the Femur, Min score ([2]; 0.26 mg/kg intramuscular): 3.0
Destructive Changes in the Proximal Epiphyseal Cartilage of the Tibia, Max score ([2]; 0.26 mg/kg intramuscular): 4.0
Destructive Changes in the Proximal Epiphyseal Cartilage of the Tibia, Me (average) score ([2]; 0.26 mg/kg intramuscular): 3.5
Destructive Changes in the Proximal Epiphyseal Cartilage of the Tibia, Min score ([2]; 0.26 mg/kg intramuscular): 3.0
Inflammatory Infiltration of the Synovium, Max score ([2]; 0.26 mg/kg intramuscular): 3.0
Inflammatory Infiltration of the Synovium, Me (average) score ([2]; 0.26 mg/kg intramuscular): 2.5
Inflammatory Infiltration of the Synovium, Min score ([2]; 0.26 mg/kg intramuscular): 2.0
Synovial Hyperplasia, Max score ([2]; 0.26 mg/kg intramuscular): 2.0
Synovial Hyperplasia, Me (average) score ([2]; 0.26 mg/kg intramuscular): 1.5
Synovial Hyperplasia, Min score ([2]; 0.26 mg/kg intramuscular): 1.0

COC(=O)[C@@H](Cc1c[nH]c2cc(I)ccc12)[N+](C)(C)C [Compound 1, (D)-6-iodohypaphorine methyl ester]
ERK 1/2 phosphorylation, MFI [3]: 274
